From patent US5679638A, “Method for treating a tumor with a chemotherapeutic agent” (Biopure Corporation, priority 1993, dated 1997)
Several values for one entry are separate records, joined by “and”; a condition that tells them apart may be missing. Equal entries are not always repeated. Structures can show the parent of a compound that is named as a salt.

What was measured:
Lewis lung carcinoma = Lewis lung carcinoma growth delay; assay type: in vivo, mouse (male C57BL); conditions: for Lewis lung carcinoma growth delay, Mean Days: NSAID days 4-18
Procedure: (§1) The Lewis lung tumor was carried in male C57BL mice (Taconic Laboratories, Germantown, N.Y.). For the experiments, 2×10^6 tumor cells prepared from a brei of several stock tumors were implanted subctaneously into the legs of male mice aged 8-10 weeks. […] Animals bearing Lewis lung tumors were treated daily with intraperitoneal Mino (10 mg/kg), Diflun (15 mg/kg) or Sulin (15 mg/kg) on days 4-18 following tumor implantation. When the tumors had reached a volume of approximately 100 mm^3 (day 7 after tumor cell implantation), cytotoxic therapy was initiated.
(§2) Therapy consisted of treatment with an antitumor alkylating agent, an antitumor antimetabolite, a non-steroidal anti-inflammatory drug (NSAID) and/or UPHS. […] CTX therapy consisted of three successive 150 mg/kg CTX doses administered by intraperitoneal injections on days 7, 9 and 11. BCNU therapy consisted of three successive 15 mg/Kg BCNU doses administered by intraperitoneal injections on days 7, 9 and 11. Therapy with the antimetabolite 5-fluorouracil(5-FU) consisted of 4 successive 40 mg/kg 5-FU doses administered by intraperitoneal injections daily on days 7 to 11. The 5-FU was purchased from Sigma Chemical Co., St. Louis, Mo. Fourteen doses of 10 mg/kg of NSAID were administered daily by intraperitoneal injections on days 4 to 18. UPHS was injected into the tail vein in 8 ml/kg doses daily on days 7-11.
The progress of each tumor was measured thrice weekly until it had reached a volume of 500 mm^3. Tumor growth delay was calculated as the number of days required for each treated tumor to reach a volume of 500 mm^3 as compared with untreated control tumors. Each treatment group comprised six animals and the experiment was repeated three times.
On the twentieth day after the subcutaneous tumor implantation, the delay in Lewis Lung Carcinoma tumor growth was evaluated. Tumor growth delay data is presented as the mean value ±SE calculated for the treatment group as compared with the control group.

[1] = tested on: Lewis lung carcinoma lung metastases; assay: Lung metastases of Lewis lung carcinoma; assay type: in vivo, mouse (male C57BL); design: Lung Metastases: unit not given here
Procedure: as §1
as §2, with “7-11. […]” for “7-11.”

[2] = tested on: intracranial 9L gliosarcoma; assay: Life span of rats with intracranial 9L gliosarcoma; assay type: in vivo, rat (male Fischer 344)
Procedure: (§3) The 9L gliosarcoma (9L) cells were obtained as a gift of 9L/SF gliosarcoma cells from Dr. Dennis Dean, University of California, San Francisco. These cells were maintained in culture in .varies.-MEM (Grand Island Biological Co., Grand Island, N.Y.) and supplemented with 10% fetal bovine serum (Sterile Systems, Inc., Logan, Utah) and with antibiotics. The 9L cells (4×10^4) in 10 μL of media without serum were implanted intracranially in male Fischer 344 rats (Taconic Farms, Germantown, N.Y.) weighing 200-250 gm on day 0. Each rat was anesthetized with sodium pentobarbital. A midline scalp incision was made and a hole was bored through the skull with 23 gauge needle at a point 2 mm lateral to the midline. The cell suspension was injected into the right frontal lobe at a depth of 3 mm from the dural surface. The needle was removed and the hole filled with dental cement. The scalp was sealed with a surgical clip. Two days later 9L cells (2×10^6) were implanted subcutaneously into the flank of each animal. When the tumors were approximately 100 mm^3 in volume, 7 days after tumor cell implantation, 8 ml/kg of UPHS was injected via the tail vein. After injecting the UPHS, administration of chemotherapeutic agents was initiated. […] BCNU therapy consisted of three 15 mg/kg BCNU doses administered by intraperitoneal injection days 7, 9 and 11. CTX and ifosfamide (IFOS) therapy consisted of three 100 mg/kg CTX or IFOS doses administered by intraperitoneal injection on days 7, 9 and 11. For the BCNU, CTX and IFOS therapies, UPHS was intravenously administered prior to each chemotherapeutic agent injection on days 7, 9 and 11. The IFOS was purchased from the Dana-Farber Cancer Institute. Survival of animals was monitored daily. Animals that were moribund or unable to reach food or water were killed by CO2 inhalation.
The effect of the treatments on the growth of the intracranial tumor was determined by the increase in life span of treated groups compared with the untreated controls. A percentage increase in life span of 25% or more is therapeutically significant.

[3] = tested on: subcutaneous 9L gliosarcoma; assay: Subcutaneous 9L gliosarcoma tumor growth delay; assay type: in vivo, rat (male Fischer 344)
Procedure: as §3
The progress of each subcutaneous tumor was measured 3 times/week until it reached a volume of 500 mm^3. Tumor growth delay was calculated as the number of days for each individual tumor to reach 500 mm^3 compared with untreated controls. Each treatment group had 4 animals and the experiment was repeated twice. Days of tumor growth delay are the mean ±SE for the treatment group compared with the control.

[4] = WITH UPHS (8 ml/kg daily days 7-11), CDDP or PAM 10 mg/kg, CTX 3 x 150, BCNU 3 x 15, 5-FU 40 mg/kg
[5] = WITHOUT UPHS, CDDP or PAM 10 mg/kg day 7, CTX 3 x 150, BCNU 3 x 15 mg/kg days 7, 9, 11, 5-FU 40 mg/kg
[6] = relative statement among BCNU, CTX, CDDP, IFOS

O=c1[nH]cc(F)c(=O)[nH]1 [5-FU, 5-fluorouracil]
Lewis lung carcinoma growth delay, Mean Days (Lewis lung carcinoma; [4]): 6.3 ± 0.5 days
Lewis lung carcinoma growth delay, Mean Days (Lewis lung carcinoma; [5]): 5.4 ± 0.4 days
Increase of growth delay by addition of UPHS (Lewis lung carcinoma; drug + UPHS vs drug): also enhanced, to a lesser degree
Lung Metastases ([1]; WITH UPHS): 15
Lung Metastases (% Large) ([1]; WITH UPHS): 40%
Lung Metastases ([1]; WITHOUT UPHS): 21
Lung Metastases (% Large) ([1]; WITHOUT UPHS): 52%

O=C(O)c1cc(-c2ccc(F)cc2F)ccc1O [Diflun, Diflunisal]
Lewis lung carcinoma growth delay, Mean Days (Lewis lung carcinoma; [4]): 0.9 ± 0.3 days
Lewis lung carcinoma growth delay, Mean Days (Lewis lung carcinoma; [5]): 0.3 ± 0.2 days
Lung Metastases ([1]; WITH UPHS): 20
Lung Metastases (% Large) ([1]; WITH UPHS): 55%
Lung Metastases ([1]; WITHOUT UPHS): 20
Lung Metastases (% Large) ([1]; WITHOUT UPHS): 51%

O=P1(NCCCl)OCCCN1CCCl (centres unmarked) [IFOS, ifosfamide]
% Increased from Control (life span) ([2]; Table II, vs untreated control): 19% and 38%
Survival Days ([2]; Table II, control 26 ± 2.2 days, CDDP 8 mg/kg day 7, BCNU 3 x 15, CTX or IFOS 3 x 100 mg/kg days 7, 9, 11, UPHS 8 ml/kg): 30.9 days and 35.9 days
Increase in life span with UPHS prior to the drug therapy ([2]; UPHS prior to drug, vs untreated control): 38%
Significance of increase in life span, drug alone ([2]; drug alone, 25% or more is therapeutically significant): did not reach significance
Increase in therapeutic response upon addition of UPHS ([2]; intracranial (life span) and subcutaneous (growth delay) 9L tumors): greatest increases in therapeutic response upon addition of UPHS
Effectiveness against intracranial 9L tumors [2, 6]: least effective treatments for intracranial 9L tumors
Subcutaneous 9L Tumor Growth Delay, Mean Days ([3]; Table III, days to 500 mm^3 vs control (19.5 ± 0.5 days), CDDP 8 mg/kg day 7, BCNU 3 x 15, CTX or IFOS 3 x 100 mg/kg, UPHS 8 ml/kg): 10.4 ± 0.9 days
Increase in tumor growth delay by prior administration of UPHS ([3]; UPHS + drug vs drug alone): 1.4 fold
Effectiveness against subcutaneous 9L tumors [3, 6]: very effective treatments for subcutaneously growing 9L tumors

CN(C)c1ccc(O)c2c1C[C@H]1C[C@H]3[C@H](N(C)C)C(O)=C(C(N)=O)C(=O)[C@@]3(O)C(O)=C1C2=O [Mino, minocycline hydrochloride]
Lewis lung carcinoma growth delay, Mean Days (Lewis lung carcinoma; [4]): 1.0 ± 0.4 days
Lewis lung carcinoma growth delay, Mean Days (Lewis lung carcinoma; [5]): 0.8 ± 0.3 days
Lung Metastases ([1]; WITH UPHS): 20
Lung Metastases (% Large) ([1]; WITH UPHS): 65%
Lung Metastases ([1]; WITHOUT UPHS): 20
Lung Metastases (% Large) ([1]; WITHOUT UPHS): 50%

CC1=C(CC(=O)O)c2cc(F)ccc2/C1=C\c1ccc([S+](C)[O-])cc1 (centres unmarked) [Sulin, Sulindac]
Lewis lung carcinoma growth delay, Mean Days (Lewis lung carcinoma; [4]): 0.5 ± 0.3 days
Lewis lung carcinoma growth delay, Mean Days (Lewis lung carcinoma; [5]): 1.2 ± 0.4 days
Effect of addition of NSAIDs (with or without UPHS) to cytotoxic agents on growth delay (Lewis lung carcinoma; mouse, in vivo): providing the best NSAID results
Lung Metastases ([1]; WITH UPHS): 21
Lung Metastases (% Large) ([1]; WITH UPHS): 57%
Lung Metastases ([1]; WITHOUT UPHS): 19
Lung Metastases (% Large) ([1]; WITHOUT UPHS): 55%
